Source: ChEMBL document CHEMBL4346748, “Growth inhibition by 1-deoxy-d-allulose, a novel bioactive deoxy sugar, screened using Caenorhabditis elegans assay” (Bioorg Med Chem Lett, 2019)
Active and inactive are the calls of the source. No cut-off for these calls is given here.

What was measured:
[1] = tested on: Caenorhabditis elegans; test: Growth inhibition of Caenorhabditis elegans N2 assessed as body size at 42 mM incubated for 72 hrs by microscopic method relative to control; type: functional
[2] = tested on: Caenorhabditis elegans; test: Growth inhibition of Caenorhabditis elegans N2 assessed as reduction in body size incubated for 72 hrs by microscopic method; type: functional; conditions: for GI50: N2, 72 h
[3] = tested on: Caenorhabditis elegans; test: Growth inhibition of Caenorhabditis elegans N2 assessed as reduction in body size at 9.5 mM incubated for 72 hrs in presence of D-ribose by microscopic method; type: functional, organism-based
[4] = tested on: Caenorhabditis elegans; test: Growth inhibition of Caenorhabditis elegans N2 assessed as reduction in body size at 9.5 mM incubated for 72 hrs in presence of up to 67 mM D-glucose by microscopic method; type: functional, organism-based
[5] = tested on: Caenorhabditis elegans; test: Growth inhibition of Caenorhabditis elegans N2 assessed as reduction in motility at 42 mM incubated for 72 hrs by microscopic method; type: functional, organism-based
[6] = tested on: Caenorhabditis elegans; test: Growth inhibition of Caenorhabditis elegans N2 assessed as reduction in body size at 9.5 mM incubated for 72 hrs in presence of D-fructose by microscopic method; type: functional, organism-based
[7] = tested on: Caenorhabditis elegans; test: Growth inhibition of Caenorhabditis elegans N2 assessed as effect on body shape at 42 mM incubated for 72 hrs by microscopic method; type: functional, organism-based
[8] = tested on: Caenorhabditis elegans; test: Growth inhibition of Caenorhabditis elegans N2 assessed as effect on body size at 42 mM incubated for 72 hrs by microscopic method; type: functional, organism-based
[9] = tested on: Caenorhabditis elegans; test: Ratio of GI50 for D-Alu to GI50 for test compound for growth inhibition of Caenorhabditis elegans N2 assessed as reduction in body size incubated for 72 hrs by microscopic method; type: functional
[10] = Toxicity in Caenorhabditis elegans N2 assessed as mortality at 42 mM incubated for 72 hrs by microscopic method; conditions: 42000 µM

## O=C(CO)[C@H](O)[C@H](O)CCO
[1]
  growth inhibition (GI): inactive

## CC(=O)[C@@H](O)[C@@H](O)[C@@H](O)CO
[1]
  growth inhibition (GI): inactive

## O=C(CO)[C@H](O)[C@H](O)[C@H](O)CO
[2]
  GI50: 52.7 mM

## CC(=O)[C@@H](O)[C@@H](O)[C@H](O)CO
[1]
  growth inhibition (GI): inactive

## CC(=O)[C@H](O)[C@@H](O)[C@H](O)CO
[1]
  growth inhibition (GI): inactive

## CC(=O)[C@H](O)[C@H](O)[C@@H](O)CO
[1]
  growth inhibition (GI): inactive

## CC(=O)[C@@H](O)[C@H](O)[C@H](O)CO
[1]
  growth inhibition (GI): inactive

## CC(=O)[C@@H](O)[C@H](O)[C@@H](O)CO
[1]
  growth inhibition (GI): inactive

## CC(=O)[C@H](O)[C@H](O)[C@H](O)CO
[3]
  growth inhibition (GI): inactive
[4]
  growth inhibition (GI): Active
[5]
  growth inhibition (GI): Active
[1]
  Activity: 5.7%
[2]
  growth inhibition (GI): Dose-dependent effect
  GI50: 5.4 mM
[6]
  growth inhibition (GI): inactive
[7]
  growth inhibition (GI): Active
[8]
  growth inhibition (GI): Active
[9]
  RatioGI50: 10
[10]
  Activity: Non-Toxic

## CC(=O)[C@H](O)[C@@H](O)[C@@H](O)CO
[1]
  growth inhibition (GI): inactive

## C[C@@H](O)[C@@H](O)[C@@H](O)C(=O)CO
[1]
  growth inhibition (GI): inactive
